# From paper PMC10301845, “Characterization of a Novel M4 PAM PET Radioligand [11C]PF06885190 in Nonhuman Primates (NHP)” (Molecules, 2023)
# Read-outs that look alike come from different tables or passages of the source.
# What was measured:
# [1] = Protein binding in plasma (ultrafiltration); type: in vitro ADME, monkey; details: male, cynomolgus, monkey, plasma, read-out: free fraction in plasma
# Protocol: (§1) The free fraction (fp) in blood plasma was measured using an ultrafiltration method with the blood sample collected before the injection of [^11C]PF06885190. Plasma (0.4 mL) was mixed with [^11C]PF06885190 formulation (0.04 mL, ~1 MBq) and incubated at room temperature (RT) for 10 min. To estimate the non-specific binding percent, the same process was performed on phosphate buffered saline (PBS) (0.4 mL) as a control solution. After the incubation, 0.2 mL of the plasma and PBS incubated mixtures were pipetted into ultrafiltration tubes (Centrifree YM-30, molecular weight cutoff, 30,000 Da; Millipore: Billerica, MA, USA) and centrifuged at 3800 rpm for 15 min. Equal aliquots (0.02 mL) of the ultrafiltrate (Cfree) and the plasma (Ctotal) were counted for their radioactivity with a NaI well-counter. Each determination was performed in triplicate. The free fraction was then calculated as fp = Cfree/Ctotal, and the results were corrected for the membrane binding measured with the control samples.
# monkey plasma proteins = assay: Protein binding in plasma (ultrafiltration); type: in vitro ADME
# Protocol: as §1
# [2] = Stability of the radioligand in the formulation (analytical HPLC); type: physicochemical; details: sterile PBS formulation; up to 60 min / 1 h after end of synthesis
# Protocol: The radiochemical purity and stability of [^11C]PF06885190 was determined by an analytical HPLC system coupled with an analytical XBridge column (C18 5 µm, 4.6 × 150 mm particle size), a Merck Hitachi L-7100 Pump, a L-7400 UV detector and a GM-tube for radioactivity detection (VWR International). A mixture of acetonitrile (30%) and HCO2NH4 (0.1 M aq. solution) (70%) with a flow rate of 2 mL/min was used as the HPLC isocratic mobile phase. The HPLC elution profile was monitored with an UV absorbance detector (ƛ = 254 nm) coupled to a radioactive detector (BETA-flow, Beckman, Fullerton, CA). [^11C]PF-06885190 was eluted with a retention time of (tR) 4.0–4.5 min (Figure S3, Supplementary Material) and the run time of the HPLC program was 8 min. The identity of the radiolabeled compounds was confirmed by HPLC with the co-injection of the corresponding authentic reference standard. The MA was calculated by analytical HPLC following the method described previously reported.
# [3] = after pretreatment with donepezil
smiles,measurement,setting,value
Cc1nc(N[11CH3])c2c(c1C)CN(C(=O)C[C@H]1C[C@@H]1c1ccc(F)nc1)C2 [[^11C]PF06885190],fraction unbound at 10 min,[1]; [3],0.121
same,fraction unbound at 10 min,[1]; baseline,0.248
same,Binding to monkey plasma proteins,monkey plasma proteins; [3],87.9 ± 0.3%
same,Binding to monkey plasma proteins,monkey plasma proteins; baseline,75.2 ± 4.2%
same,"stability in formulation, radiochemical purity",[2],exceeding 99%
